The text below walks through data of patent US20120309750A1, “5-MEMBERED HETEROCYCLE DERIVATIVES AND MANUFACTURING PROCESS THEREOF” (ILDONG PHARM CO., LTD., priority 2010, published 2012).

The target of data set [1] is yeast HSP90 (Saccharomyces cerevisiae, UniProt P02829). The experiment in a line: Hsp90 ATPase assay (malachite green). Format: biochemical. On the procedure:
(§1) For present invention, the ATPase activity of yeast HSP90 was measured using malachite green assay. Formula I compounds for primary antitumoral activity were treated in human colorectal cancer cells (HCT116) showing increased expression levels of HSP90 client protein and cotoxicity IC50 values was measured as a result.

Data set [2] deals with A2780 Human ovarian cancer cells. The data set can be described thus: In vivo antitumor efficacy, A2780 subcutaneous xenograft. Conditions: 200 mg/kg po qdx5, 2 weeks, A2780 xenograft in female Balb/c nude mice. The method, then:
A2780 Human ovarian cancer cells were established as subcutaneous xenografts by injection of 8×10^6 cells into the flanks of adult female Balb/c nude mice. Mice with established tumors (50-200 mm^3) were selected for study (n=3-6/treatment group). The test compounds were formulated in ethanol-PEG400-DW and administered orally (po) at a dose of 200 mg/kg. The vehicle alone was administered to control groups. Animals were dosed 5 days per week (Monday through Friday) for 2 consecutive weeks. Animals were weighed and tumor size was determined twice weekly by caliper measurements, and tumor volumes were calculated (volume=[l×w^2]/2(mm^3), where l and w refer to the larger and smaller dimensions collected at each measurement). The mean tumor volumes of each group were calculated. The change in mean treated tumor volume was divided by the change in mean control tumor volume, multiplied by 100 and subtracted from 100% to give the tumor growth inhibition for each group.

The test system of data set [3] is human colorectal cancer cells (HCT116). The data set can be described thus: Growth inhibition assay (cytotoxicity) in HCT116. Format: cell-based. Conditions: HCT-116. The method, then:
as §1

The nature of data set [4]: Mouse pharmacokinetics of prodrug after oral gavage. It is filed as in vivo, Balb/c male mice. Conditions: single PO dose 100 mg/kg. The method, then:
Pharmacokinetics test was carried out in order to confirm the change from invented prodrugs to parent compounds in vivo. Balb/c male mice are dosed with a prodrug by oral gavages. A single administration of a prodrug is given and a dose volume of 10 mL/kg is used for PO doses.
Blood samples are collected in lithium heparin coated tubes at 10, 20, 30, 60, 120 min. Plasma is isolated by centrifugation and frozen before analysis. Plasma samples are prepared by liquid-liquid extraction with Ethyl acetate containing internal standard. Quantification is by using a LC-MS/MS method specific to the selected compound. Animals that had been dosed the selected compound were analyzed for prodrug and the parent compound. Pharmacokinetics parameters are calculated using WinNonLinnon compartmental analysis software.

Chain of yeast HSP90 (P02829 whole entry): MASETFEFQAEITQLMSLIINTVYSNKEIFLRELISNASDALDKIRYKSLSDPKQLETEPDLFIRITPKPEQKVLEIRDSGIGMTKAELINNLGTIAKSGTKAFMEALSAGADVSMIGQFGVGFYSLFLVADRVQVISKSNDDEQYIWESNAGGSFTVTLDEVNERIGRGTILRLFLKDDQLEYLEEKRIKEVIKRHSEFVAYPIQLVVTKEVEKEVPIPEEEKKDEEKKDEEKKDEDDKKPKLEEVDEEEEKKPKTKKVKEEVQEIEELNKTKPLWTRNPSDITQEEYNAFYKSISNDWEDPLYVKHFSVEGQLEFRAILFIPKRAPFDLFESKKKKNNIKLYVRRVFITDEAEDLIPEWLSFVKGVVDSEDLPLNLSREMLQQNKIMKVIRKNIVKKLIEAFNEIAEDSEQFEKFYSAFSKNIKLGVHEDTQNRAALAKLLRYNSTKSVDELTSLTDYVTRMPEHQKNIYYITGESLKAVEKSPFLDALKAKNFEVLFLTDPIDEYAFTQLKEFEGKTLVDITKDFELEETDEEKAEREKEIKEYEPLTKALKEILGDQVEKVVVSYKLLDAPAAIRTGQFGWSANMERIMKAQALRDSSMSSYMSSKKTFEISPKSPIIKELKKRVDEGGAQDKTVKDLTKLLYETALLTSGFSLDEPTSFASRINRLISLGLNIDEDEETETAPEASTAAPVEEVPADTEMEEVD

Turning to `CCNC(=O)c1noc(-c2cc(C(C)C)c(O)cc2O)c1-c1noc(C)n1` [Compound I-60, 5-(2,4-Dihydroxy-5-isopropylphenyl)-N-ethyl-4-(5-methyl-1,2,4-oxadiazol-3-yl) isoxazole-3-carboxamide], the concentration for half-maximal inhibition (IC50) in data set [1] and in data set [3] was less than 500 nM throughout. Also, in data set [2], the “% TGI” value was 50%.

For the compound `CCNC(=O)c1noc(-c2cc(C(C)C)c(OC(=O)[C@@H]3CCCN3C(=O)OC(C)(C)C)cc2OC(=O)C2CCCN2C(=O)OC(C)(C)C)c1-c1ccn(C)n1` (stereo partly drawn) [II-8, (2S,2′S)-1-tert-Butyl^′2,2-4-(3-(ethylcarbamoyl)-4-(1-methyl-1H-pyrazol-3-yl)isoxazol-5-yl)-6-isopropyl-1,3-phenylene dipyrrolidine-1,2-dicarboxylate], the “exposure of the active pharmaceutical agent (I-97) relative to the starting dose” value in data set [4] is reported as “optimal exposure”.

In the case of `CCNC(=O)c1noc(-c2cc(C(C)C)c(O)cc2O)c1-c1nnnn1CC` [Compound I-13, 5-(2,4-Dihydroxy-5-isopropylphenyl)-N-ethyl-4-(1-ethyl-1H-tetrazol-5-yl)isoxazole-3-carboxamide], the IC50 in data set [1] and in data set [3] was less than 500 nM in each case.

On to `C=CCNCc1cc(-c2c(C(=O)NCC)noc2-c2cc(C(C)C)c(O)cc2O)on1` [Compound I-44, 3′-((Allylamino)methyl)-5-(2,4-dihydroxy-5-isopropylphenyl)-N-ethyl-4,5′-biis oxazole-3-carboxamide], for which the IC50 in data set [1] and in data set [3] was less than 500 nM each time.

Consider `CCNC(=O)c1noc(-c2cc(C(C)C)c(O)cc2O)c1-c1cc[nH]n1` [Compound I-96, 5-(2,4-Dihydroxy-5-isopropylphenyl)-N-ethyl-4-(1H-pyrazol-3-yl)isoxazole-3-carboxamide], for which the IC50 (usually the point on the concentration scale where inhibition reaches its midpoint) was 500 to 1000 nM in data set [1] and less than 500 nM in data set [3].

Consider `CCNC(=O)c1noc(-c2cc(C(C)C)c(O)cc2O)c1-c1cc(CF)no1` [Compound I-28, 5-(2,4-Dihydroxy-5-isopropylphenyl)-N-ethyl-3′-(fluoromethyl)-4,5′-biisoxazole-3-carboxamide], for which the half-inhibitory concentration (IC50) in data set [1] and in data set [3] was less than 500 nM in each case.

Turning to `CCNC(=O)c1noc(-c2cc(C(C)C)c(O)cc2O)c1-c1noc(C(=O)N2CCOCC2)n1` [Compound I-67, 5-(2,4-Dihydroxy-5-isopropylphenyl)-N-ethyl-4-(5-(morpholine-4-carbonyl)-1,2,4-oxadiazol-3-yl)isoxazole-3-carboxamide], the IC50 in data set [1] and in data set [3] was 500 to 1000 nM in each case.

As to `CCNC(=O)c1noc(-c2cc(C(C)C)c(O)cc2O)c1-c1noc(CO)n1` [Compound I-81, 5-(2,4-Dihydroxy-5-isopropylphenyl)-N-ethyl-4-(5-(hydroxymethyl)-1,2,4-oxadiazol-3-yl)isoxazole-3-carboxamide], the IC50 in data set [1] was 500 to 1000 nM; in data set [3], less than 500 nM.

For the compound `CCCN(CCC)Cc1cc(-c2c(C(=O)NCC)noc2-c2cc(C(C)C)c(O)cc2O)on1` [Compound I-45, 5-(2,4-Dihydroxy-5-isopropylphenyl)-3′-((dipropylamino)methyl)-N-ethyl-4,5′-biisoxazole-3-carboxamide], the IC50 in data set [1] and in data set [3] was less than 500 nM each time.

For the compound `CCNC(=O)c1noc(-c2cc(C(C)C)c(O)cc2O)c1-c1noc(C2CCCC2)n1` [Compound I-88, 4-(5-Cyclopentyl-1,2,4-oxadiazol-3-yl)-5-(2,4-dihydroxy-5-isopropylphenyl)-N-ethylisoxazole-3-carboxamide], the IC50 in data set [1] and in data set [3] was less than 500 nM throughout.

Consider `CCNC(=O)c1noc(-c2cc(C(C)C)c(O)cc2O)c1-c1cc(COCC(N)=O)no1` [Compound I-36, 3′-((2-Amino-2-oxoethoxy)methyl)-5-(2,4-dihydroxy-5-isopropylphenyl)-N-ethyl-4,5′-biisoxazole-3-carboxamide], for which the IC50 in data set [1] and in data set [3] was less than 500 nM in each case.

Consider `CCNCc1cc(-c2c(C(=O)NCC)noc2-c2cc(C(C)C)c(O)cc2O)on1` [Compound I-27, 5-(2,4-Dihydroxy-5-isopropylphenyl)-N-ethyl-3′-((ethylamino)methyl)-4,5′-biisoxazole-3-carboxamide], for which the IC50 in data set [1] and in data set [3] was less than 500 nM each time.

As for `CCNC(=O)c1noc(-c2cc(C(C)C)c(O)cc2O)c1-c1cc(COCC(=O)OC)no1` [Compound I-19, Methyl 2-((5-(2,4-dihydroxy-5-isopropylphenyl)-3-(ethylcarbamoyl)-4,5′-biisoxazol-3′-yl)methoxy)acetate], the IC50 in data set [1] and in data set [3] was less than 500 nM each time.

As to `CCNC(=O)c1noc(-c2cc(C(C)C)c(O)cc2O)c1-c1noc(C(=O)N(C)C)n1` [Compound I-64, 3-(5-(2,4-Dihydroxy-5-isopropylphenyl)-3-(ethylcarbamoyl)isoxazol-4-yl)-N,N-dimethyl-1,2,4-oxadiazole-5-carboxamide], the IC50 in data set [1] and in data set [3] was less than 500 nM throughout.

Take `CCNC(=O)c1noc(-c2cc(C(C)C)c(O)cc2O)c1-c1noc(-c2ccccc2)n1` [Compound I-61, 5-(2,4-Dihydroxy-5-isopropylphenyl)-N-ethyl-4-(5-phenyl-1,2,4-oxadiazol-3-yl) isoxazole-3-carboxamide]: the IC50 in data set [1] and in data set [3] was less than 500 nM in each case.

Consider `CCNC(=O)c1noc(-c2cc(C(C)C)c(O)cc2O)c1-c1cc(CNC(C)C)no1` [Compound I-40, 5-(2,4-Dihydroxy-5-isopropylphenyl)-N-ethyl-3′-((isopropylamino)methyl)-4,5′-biisoxazole-3-carboxamide], for which the IC50 was 500 to 1000 nM in data set [1] and less than 500 nM in data set [3].

As for `CCNC(=O)c1noc(-c2cc(C(C)C)c(O)cc2O)c1-c1cc(CNC)no1` [Compound I-42, 5-(2,4-Dihydroxy-5-isopropylphenyl)-N-ethyl-3′-((methylamino)methyl)-4,5′-biisoxazole-3-carboxamide], the half-maximal inhibitory concentration (IC50) in data set [1] and in data set [3] was less than 500 nM in each case.

Consider `CCNC(=O)c1noc(-c2cc(C(C)C)c(O)cc2O)c1-c1cc(CC#N)no1` [Compound I-35, 3′-(Cyanomethyl)-5-(2,4-dihydroxy-5-isopropylphenyl)-N-ethyl-4,5′-biisoxazole-3-carboxamide], for which the half-inhibitory concentration (IC50) in data set [1] and in data set [3] was less than 500 nM in each case.

Take `CCNC(=O)c1noc(-c2cc(Cl)c(O)cc2O)c1-c1cc(C(=O)OCC)no1` [Compound I-25, Ethyl 5-(5-chloro-2,4-dihydroxyphenyl)-3-(ethylcarbamoyl)-4,5′-biisoxazole-3′-carboxylate]: the IC50 in data set [1] is 500 to 1000 nM; in data set [3] it was greater than 1000 nM.

On to `CCNC(=O)c1noc(-c2cc(C(C)C)c(O)cc2O)c1-c1noc(-c2ccc([N+](=O)[O-])cc2)n1` [Compound I-85, 5-(2,4-Dihydroxy-5-isopropylphenyl)-N-ethyl-4-(5-(4-nitrophenyl)-1,2,4-oxadiazol-3-yl)isoxazole-3-carboxamide], for which the IC50 in data set [1] and in data set [3] was less than 500 nM in each case.

Turning to `CCNC(=O)c1noc(-c2cc(C(C)C)c(O)cc2O)c1-c1noc(NC)n1` [Compound I-79, 5-(2,4-Dihydroxy-5-isopropylphenyl)-N-ethyl-4-(5-(methylamino)-1,2,4-oxadiazol-3-yl)isoxazole-3-carboxamide], the IC50 in data set [1] was 500 to 1000 nM; in data set [3] it was less than 500 nM.

With `CCNC(=O)c1noc(-c2cc(C(C)C)c(O)cc2O)c1-c1noc(N2CCCC2)n1` [Compound I-69, 5-(2,4-Dihydroxy-5-isopropylphenyl)-N-ethyl-4-(5-(pyrrolidin-1-yl)-1,2,4-oxadiazol-3-yl)isoxazole-3-carboxamide], the 50% inhibitory concentration (IC50) in data set [1] was 500 to 1000 nM; in data set [3], less than 500 nM.

For the compound `CCNC(=O)c1noc(-c2cc(C(C)C)c(O)cc2O)c1-c1ccc(CN2CCOCC2)s1` [Compound I-1, 5-(2,4-Dihydroxy-5-isopropylphenyl)-N-ethyl-4-(5-(morpholinomethyl)thiophen-2-yl)isoxazole-3-carboxamide], the half-inhibitory concentration (IC50) in data set [1] and in data set [3] was less than 500 nM in each case.
